Reference: PubChem BioAssay AID1745844 (Carcinogenic Potency Database (CPDB), 2022)
Active and inactive are the calls of the source. How the calls were made is not given here.

Tested on: rodent lifetime carcinogenesis bioassay, tumor incidence TD50
Test: carcinogenic potency in animals, long-term in vivo studies, CPDB compilation (AID 1745844)

Which results are given for `CCCCNNCCCC`?
TD50 (mouse, strain Swiss albino, females, in drinking water, site: all sites, lesion: malignant lymphoma, dosed 93 weeks, study length 93 weeks): 198 mg/kg/day; carcinogen call (mouse, strain Swiss albino, females, in drinking water, site: liver, lesion: angioma, dosed 93 weeks, study length 93 weeks): negative (inactive); carcinogen call (mouse, strain Swiss albino, females, in drinking water, site: liver, lesion: angiosarcoma, dosed 93 weeks, study length 93 weeks): negative (inactive); TD50 (mouse, strain Swiss albino, females, in drinking water, site: lung, lesion: several types, types named in the paper, dosed 93 weeks, study length 93 weeks): 69.8 mg/kg/day; TD50 (mouse, strain Swiss albino, males, in drinking water, site: all sites, lesion: malignant lymphoma, dosed 87 weeks, study length 87 weeks): 886 mg/kg/day; TD50 (mouse, strain Swiss albino, males, in drinking water, site: kidney, lesion: several types, types named in the paper, dosed 87 weeks, study length 87 weeks): 449 mg/kg/day; carcinogen call (mouse, strain Swiss albino, males, in drinking water, site: liver, lesion: angioma, dosed 87 weeks, study length 87 weeks): negative (inactive); carcinogen call (mouse, strain Swiss albino, males, in drinking water, site: liver, lesion: angiosarcoma, dosed 87 weeks, study length 87 weeks): negative (inactive); TD50 (mouse, strain Swiss albino, males, in drinking water, site: lung, lesion: several types, types named in the paper, dosed 87 weeks, study length 87 weeks): 34.5 mg/kg/day

What does the source list for `O=P(=O)O`?
TD50 (rat, strain F344/DuCrj, females, in feed, site: any site (literature study), lesion: several types, types named in the paper, dosed 108 weeks, study length 108 weeks): 5100 mg/kg/day (inactive); carcinogen call (rat, strain F344/DuCrj, females, in feed, site: liver, lesion: one or several types, types not named, dosed 108 weeks, study length 108 weeks): negative (inactive); carcinogen call (rat, strain F344/DuCrj, males, in feed, site: any site (literature study), lesion: several types, types named in the paper, dosed 108 weeks, study length 108 weeks): negative (inactive); carcinogen call (rat, strain F344/DuCrj, males, in feed, site: liver, lesion: one or several types, types not named, dosed 108 weeks, study length 108 weeks): negative (inactive)

Which carcinogen call (hamster, strain Syrian Golden, females, in feed, site: liver, lesion: one or several types, types not named, dosed 104 weeks, study length 104 weeks) does the source give for `CC(C)(OCc1ccc(-c2ccc(Cl)cc2)cc1)C(=O)O` here?
Its carcinogen call is “negative (inactive)”.

What about the carcinogen call (hamster, strain Syrian Golden, females, in feed, site: lung, lesion: one or several types, types not named, dosed 104 weeks, study length 104 weeks) of the same molecule?
The carcinogen call was “negative (inactive)”.

What about the carcinogen call (hamster, strain Syrian Golden, males, in feed, site: liver, lesion: one or several types, types not named, dosed 104 weeks, study length 104 weeks) of the same molecule?
The carcinogen call was “negative (inactive)”.

What about the TD50 (hamster, strain Syrian Golden, males, in feed, site: lung, lesion: one or several types, types not named, dosed 104 weeks, study length 104 weeks) of the same molecule?
The TD50 was 1510 mg/kg/day (inactive).

What about the TD50 (mouse, strain C57BL/10J, females, in feed, site: liver, lesion: hepatocellular carcinoma, dosed 78 weeks, study length 78 weeks) of the same molecule?
Its TD50 is 870 mg/kg/day.

What about the TD50 (mouse, strain C57BL/10J, females, in feed, site: lung, lesion: one or several types, types not named, dosed 78 weeks, study length 78 weeks) of the same molecule?
The TD50 was 1010 mg/kg/day.

And the TD50 (mouse, strain C57BL/10J, males, in feed, site: liver, lesion: hepatocellular adenoma, dosed 78 weeks, study length 78 weeks)?
The TD50 was 154 mg/kg/day.

And the TD50 (mouse, strain C57BL/10J, males, in feed, site: liver, lesion: hepatocellular carcinoma, dosed 78 weeks, study length 78 weeks)?
Its TD50 is 214 mg/kg/day.

And the TD50 (rat, strain Alpk:APfSD, males, in feed, site: liver, lesion: hepatocellular adenoma, dosed 104 weeks, study length 104 weeks)?
The TD50 was 62.5 mg/kg/day.

`CC(C)=NO` was tested. Which TD50 (rat, strain MRC-Wistar, females, in drinking water, site: any site (literature study), lesion: several types, types named in the paper, dosed 78 weeks, study length 130 weeks) did it give?
The TD50 was 91.5 mg/kg/day.

What about the TD50 (rat, strain MRC-Wistar, females, in drinking water, site: liver, lesion: hemangioma, dosed 78 weeks, study length 130 weeks) of the same molecule?
Its TD50 is 408 mg/kg/day (inactive).

What about the TD50 (rat, strain MRC-Wistar, females, in drinking water, site: liver, lesion: hepatocellular adenoma, dosed 78 weeks, study length 130 weeks) of the same molecule?
Its TD50 is 127 mg/kg/day (inactive).

And the TD50 (rat, strain MRC-Wistar, females, in drinking water, site: liver, lesion: several types, types named in the paper, dosed 78 weeks, study length 130 weeks)?
Its TD50 is 127 mg/kg/day (inactive).

And the TD50 (rat, strain MRC-Wistar, males, in drinking water, site: any site (literature study), lesion: several types, types named in the paper, dosed 78 weeks, study length 110 weeks)?
Its TD50 is 12.8 mg/kg/day.

And the TD50 (rat, strain MRC-Wistar, males, in drinking water, site: liver, lesion: hemangioma, dosed 78 weeks, study length 110 weeks)?
Its TD50 is 136 mg/kg/day.

And the TD50 (rat, strain MRC-Wistar, males, in drinking water, site: liver, lesion: hepatocellular adenoma, dosed 78 weeks, study length 110 weeks)?
Its TD50 is 12.1 mg/kg/day.

What about the TD50 (rat, strain MRC-Wistar, males, in drinking water, site: liver, lesion: several types, types named in the paper, dosed 78 weeks, study length 110 weeks) of the same molecule?
The TD50 was 12.1 mg/kg/day (inactive).

With `O=C(OC[C@@H]1O[C@H](OC(=O)c2cc(O)c(O)c(OC(=O)c3cc(O)c(O)c(O)c3)c2)[C@@H](OC(=O)c2cc(O)c(O)c(OC(=O)c3cc(O)c(O)c(O)c3)c2)[C@H](OC(=O)c2cc(O)c(O)c(OC(=O)c3cc(O)c(O)c(O)c3)c2)[C@H]1OC(=O)c1cc(O)c(O)c(OC(=O)c2cc(O)c(O)c(O)c2)c1)c1cc(O)c(O)c(OC(=O)c2cc(O)c(O)c(O)c2)c1` as the molecule, how does the TD50 (rat, strain F344/DuCrj, females, in drinking water, site: any site (literature study), lesion: several types, types named in the paper, dosed 104 weeks, study length 114 weeks) read?
The TD50 was 620 mg/kg/day (inactive).

And the TD50 (rat, strain F344/DuCrj, females, in drinking water, site: liver, lesion: hepatocellular adenoma, dosed 104 weeks, study length 114 weeks)?
Its TD50 is 16000 mg/kg/day (inactive).

What about the carcinogen call (rat, strain F344/DuCrj, males, in drinking water, site: any site (literature study), lesion: several types, types named in the paper, dosed 104 weeks, study length 114 weeks) of the same molecule?
Its carcinogen call is “negative (inactive)”.

And the carcinogen call (rat, strain F344/DuCrj, males, in drinking water, site: liver, lesion: hepatocellular adenoma, dosed 104 weeks, study length 114 weeks)?
Its carcinogen call is “negative (inactive)”.

How did the TD50 (mouse, strain BALB/cLacDp, females, in feed, site: liver, lesion: angioma, dosed 80 weeks, study length 119 weeks) turn out when `O=C1c2ccccc2CN2C(=O)c3ccccc3CN12` was run?
Its TD50 is 7130 mg/kg/day.

And the TD50 (mouse, strain BALB/cLacDp, females, in feed, site: liver, lesion: angiosarcoma, dosed 80 weeks, study length 119 weeks)?
Its TD50 is 852 mg/kg/day.

What about the TD50 (mouse, strain BALB/cLacDp, females, in feed, site: liver, lesion: hepatocellular adenoma, dosed 80 weeks, study length 119 weeks) of the same molecule?
Its TD50 is 1150 mg/kg/day.

What about the TD50 (mouse, strain BALB/cLacDp, females, in feed, site: liver, lesion: hepatocellular carcinoma, dosed 80 weeks, study length 119 weeks) of the same molecule?
Its TD50 is 3540 mg/kg/day.

And the TD50 (mouse, strain BALB/cLacDp, females, in feed, site: lung, lesion: several types, types named in the paper, dosed 80 weeks, study length 119 weeks)?
Its TD50 is 269 mg/kg/day (inactive).

What about the TD50 (mouse, strain BALB/cLacDp, males, in feed, site: liver, lesion: angioma, dosed 80 weeks, study length 119 weeks) of the same molecule?
The TD50 was 1370 mg/kg/day.

What about the TD50 (mouse, strain BALB/cLacDp, males, in feed, site: liver, lesion: angiosarcoma, dosed 80 weeks, study length 119 weeks) of the same molecule?
Its TD50 is 879 mg/kg/day.

What about the TD50 (mouse, strain BALB/cLacDp, males, in feed, site: lung, lesion: several types, types named in the paper, dosed 80 weeks, study length 119 weeks) of the same molecule?
The TD50 was 412 mg/kg/day (inactive).

For `Cc1ccc(C)c(N)c1`, which TD50 (mouse, strain CD-1 HaM/ICR, females, in feed, site: any site (literature study), lesion: several types, types named in the paper, dosed 68 weeks, study length 94 weeks) is on record?
The TD50 was 475 mg/kg/day.

What about the TD50 (mouse, strain CD-1 HaM/ICR, females, in feed, site: liver, lesion: hepatoma, dosed 68 weeks, study length 94 weeks) of the same molecule?
The TD50 was 552 mg/kg/day.

What about the TD50 (mouse, strain CD-1 HaM/ICR, females, in feed, site: liver, lesion: several types, types named in the paper, dosed 68 weeks, study length 94 weeks) of the same molecule?
Its TD50 is 552 mg/kg/day.

And the TD50 (mouse, strain CD-1 HaM/ICR, females, in feed, site: lung, lesion: several types, types named in the paper, dosed 68 weeks, study length 94 weeks)?
The TD50 was 1290 mg/kg/day (inactive).

What about the TD50 (mouse, strain CD-1 HaM/ICR, males, in feed, site: all sites, lesion: all vascular tumors, dosed 68 weeks, study length 94 weeks) of the same molecule?
The TD50 was 723 mg/kg/day.

What about the TD50 (mouse, strain CD-1 HaM/ICR, males, in feed, site: any site (literature study), lesion: several types, types named in the paper, dosed 68 weeks, study length 94 weeks) of the same molecule?
The TD50 was 321 mg/kg/day.

What about the TD50 (mouse, strain CD-1 HaM/ICR, males, in feed, site: liver, lesion: several types, types named in the paper, dosed 68 weeks, study length 94 weeks) of the same molecule?
Its TD50 is 805 mg/kg/day.

And the TD50 (mouse, strain CD-1 HaM/ICR, males, in feed, site: lung, lesion: several types, types named in the paper, dosed 68 weeks, study length 94 weeks)?
The TD50 was 765 mg/kg/day (inactive).

What about the TD50 (rat, strain Charles River CD (Sprague-Dawley), males, in feed, site: any site (literature study), lesion: several types, types named in the paper, dosed 77 weeks, study length 103 weeks) of the same molecule?
The TD50 was 67.2 mg/kg/day.

What about the TD50 (rat, strain Charles River CD (Sprague-Dawley), males, in feed, site: liver, lesion: several types, types named in the paper, dosed 77 weeks, study length 103 weeks) of the same molecule?
Its TD50 is 3260 mg/kg/day (inactive).

And the TD50 (rat, strain Charles River CD (Sprague-Dawley), males, in feed, site: subcutaneous tissue, lesion: several types, types named in the paper, dosed 77 weeks, study length 103 weeks)?
Its TD50 is 152 mg/kg/day.
